Patent US10004701B2, “Methods and compositions for treating infection” (UNIVERSITY OF ROCHESTER, priority 2012, dated 2018)
Where a name gives a salt, the structure may show the parent alone. Read-outs that look alike come from different tables or passages of the source.

What was measured:
Test in all cases: AK assay 384-well format, Prestwick library screening
[1] = test system: E. faecium; format: cell-based, Enterococcus faecium; details: Enterococcus faecium, 3 h, 50 μM final drug concentration
[2] = test system: S. aureus strain USA300-0114; format: cell-based, Staphylococcus aureus; details: Staphylococcus aureus, USA300, 3 h, 50 μM final drug concentration
[3] = test system: K. pneumoniae; format: cell-based, Klebsiella pneumoniae; details: Klebsiella pneumoniae, 3 h, 50 μM final drug concentration
[4] = test system: A. baumannii strain 98-37-09; format: cell-based, Acinetobacter baumannii; details: Acinetobacter baumannii, 983709, 3 h, 50 μM final drug concentration
[5] = test system: P. aeruginosa; format: cell-based, Pseudomonas aeruginosa; details: Pseudomonas aeruginosa, 3 h, 50 μM final drug concentration
[6] = test system: E. cloacae; format: cell-based, Enterobacter cloacae; details: Enterobacter cloacae, 3 h, 50 μM final drug concentration
[7] = test system: E. coli; format: cell-based, Escherichia coli; details: Escherichia coli, 3 h, 50 μM final drug concentration
[8] = planktonic E. faecium, 384-well, cutoff for positive-scoring molecules 3-fold increase, read-out: AK-based Prestwick Library Screening Results: E. faecium (increase in extracellular AK activity)
[9] = planktonic S. aureus, 384-well, cutoff for positive-scoring molecules 3-fold increase, read-out: AK-based Prestwick Library Screening Results: S. aureus (increase in extracellular AK activity)
[10] = planktonic K. pneumoniae, 384-well, cutoff for positive-scoring molecules 3-fold increase, read-out: AK-based Prestwick Library Screening Results: K. pneumoniae (increase in extracellular AK activity)
[11] = planktonic A. baumannii, 384-well, cutoff for positive-scoring molecules 3-fold increase, read-out: AK-based Prestwick Library Screening Results: A. baumannii (increase in extracellular AK activity)
[12] = planktonic P. aeruginosa, 384-well, cutoff for positive-scoring molecules 3-fold increase, read-out: AK-based Prestwick Library Screening Results: P. aeruginosa (increase in extracellular AK activity)
[13] = planktonic E. cloacae, 384-well, cutoff for positive-scoring molecules 3-fold increase, read-out: AK-based Prestwick Library Screening Results: E. cloacae (increase in extracellular AK activity)
[14] = planktonic E. coli, 384-well, cutoff for positive-scoring molecules 3-fold increase, read-out: AK-based Prestwick Library Screening Results: E. coli (increase in extracellular AK activity)
[15] = 384-well format, cutoff for positive-scoring molecules 3-fold increase, read-out: AK-based Prestwick Library Screening Results, E. faecium (increase in extracellular AK activity)
[16] = 384-well format, cutoff for positive-scoring molecules 3-fold increase, read-out: AK-based Prestwick Library Screening Results, S. aureus (increase in extracellular AK activity)
[17] = 384-well format, cutoff for positive-scoring molecules 3-fold increase, read-out: AK-based Prestwick Library Screening Results, K. pneumoniae (increase in extracellular AK activity)
[18] = 384-well format, cutoff for positive-scoring molecules 3-fold increase, read-out: AK-based Prestwick Library Screening Results, A. baumannii (increase in extracellular AK activity)
[19] = 384-well format, cutoff for positive-scoring molecules 3-fold increase, read-out: AK-based Prestwick Library Screening Results, P. aeruginosa (increase in extracellular AK activity)
[20] = 384-well format, cutoff for positive-scoring molecules 3-fold increase, read-out: AK-based Prestwick Library Screening Results, E. cloacae (increase in extracellular AK activity)
[21] = 384-well format, cutoff for positive-scoring molecules 3-fold increase, read-out: AK-based Prestwick Library Screening Results, E. coli (increase in extracellular AK activity)

Structure (SMILES)	fold induction at 50 µM [1, 8]	fold induction at 50 µM [2, 9]	fold induction at 50 µM [3, 10]	fold induction at 50 µM [4, 11]	fold induction at 50 µM [5, 12]	fold induction at 50 µM [6, 13]	fold induction at 50 µM [7, 14]	fold induction at 50 µM [1, 15]	fold induction at 50 µM [2, 16]	fold induction at 50 µM [3, 17]	fold induction at 50 µM [4, 18]	fold induction at 50 µM [5, 19]	fold induction at 50 µM [6, 20]	fold induction at 50 µM [7, 21]	further results
O=C(CCNNC(=O)c1ccncc1)NCc1ccccc1 [Nialamide]	–	–	–	–	–	–	–	–	–	–	–	–	–	–	fold induction at 50 µM ([1]; planktonic E. faecium, positive cutoff 3-fold increase, read-out: AK-based Prestwick library screening result, E. faecium (fold increase in extracellular AK activity)): 1.1; fold induction at 50 µM ([2]; planktonic S. aureus, positive cutoff 3-fold increase, read-out: AK-based Prestwick library screening result, S. aureus (fold increase in extracellular AK activity)): 1.2; fold induction at 50 µM ([3]; planktonic K. pneumoniae, positive cutoff 3-fold increase, read-out: AK-based Prestwick library screening result, K. pneumoniae (fold increase in extracellular AK activity)): 0.9; fold induction at 50 µM ([4]; planktonic A. baumannii, positive cutoff 3-fold increase, read-out: AK-based Prestwick library screening result, A. baumannii (fold increase in extracellular AK activity)): 1; fold induction at 50 µM ([5]; planktonic P. aeruginosa, positive cutoff 3-fold increase, read-out: AK-based Prestwick library screening result, P. aeruginosa (fold increase in extracellular AK activity)): 1.2; fold induction at 50 µM ([6]; planktonic E. cloacae, positive cutoff 3-fold increase, read-out: AK-based Prestwick library screening result, E. cloacae (fold increase in extracellular AK activity)): 1.4; fold induction at 50 µM ([7]; planktonic E. coli, positive cutoff 3-fold increase, read-out: AK-based Prestwick library screening result, E. coli (fold increase in extracellular AK activity)): 1.2
COC(=O)C1=C(C)NC(C)=C(C(=O)OCCN(C)Cc2ccccc2)C1c1cccc([N+](=O)[O-])c1 (stereo not drawn) [Nicardipine hydrochloride]	–	–	–	–	–	–	–	–	–	–	–	–	–	–	fold induction at 50 µM ([1]; planktonic, cutoff for positive 3-fold increase, read-out: AK-based Prestwick Library Screening Results, E. faecium (fold increase in extracellular AK activity)): 1.1; fold induction at 50 µM ([2]; planktonic, cutoff for positive 3-fold increase, read-out: AK-based Prestwick Library Screening Results, S. aureus (fold increase in extracellular AK activity)): 0.6; fold induction at 50 µM ([3]; planktonic, cutoff for positive 3-fold increase, read-out: AK-based Prestwick Library Screening Results, K. pneumoniae (fold increase in extracellular AK activity)): 1; fold induction at 50 µM ([4]; planktonic, cutoff for positive 3-fold increase, read-out: AK-based Prestwick Library Screening Results, A. baumannii (fold increase in extracellular AK activity)): 1.3; fold induction at 50 µM ([5]; planktonic, cutoff for positive 3-fold increase, read-out: AK-based Prestwick Library Screening Results, P. aeruginosa (fold increase in extracellular AK activity)): 1.1; fold induction at 50 µM ([6]; planktonic, cutoff for positive 3-fold increase, read-out: AK-based Prestwick Library Screening Results, E. cloacae (fold increase in extracellular AK activity)): 1.4; fold induction at 50 µM ([7]; planktonic, cutoff for positive 3-fold increase, read-out: AK-based Prestwick Library Screening Results, E. coli (fold increase in extracellular AK activity)): 1.2
CO[C@]12C[C@@H](COC(=O)c3cncc(Br)c3)CN(C)[C@@H]1Cc1cn(C)c3cccc2c13 [Nicergoline]	1	1.4	1	1.4	1.2	1.2	1.3	–	–	–	–	–	–	–	–
O=C(Nc1ccc([N+](=O)[O-])cc1Cl)c1cc(Cl)ccc1O [Niclosamide]	–	–	–	–	–	–	–	0.1	0.4	0.1	0.2	0.1	0.5	0.1	–
O=C(NCCO[N+](=O)[O-])c1cccnc1 [Nicorandil]	–	–	–	–	–	–	–	0.9	0.6	0.8	0.8	0.7	0.9	0.9	–
COC(=O)C1=C(C)NC(C)=C(C(=O)OC)C1c1ccccc1[N+](=O)[O-] [Nifedipine]	0.9	0.5	0.9	1.5	1	1.4	1.4	–	–	–	–	–	–	–	–
